By IC50 is commonly meant the concentration at which inhibition is half-maximal. A higher IC50 goes with a need for much substance.

In US20230027198A1 (The Rockefeller University, priority 2019, published 2023) one finds IC50 data, which are given here for 50 molecules.

Molecules are shown by their SMILES.

This assay deals with T1, ENL YEATS domain (6×HIS ENL YEATS Domain) binding to H3K9cr peptide (Homo sapiens, UniProt Q03111).
T1 construct: aa1-150; EpiCypher, 15-0069; purchased EpiCypher 15-0069
T1 sequence (Q03111 1-150): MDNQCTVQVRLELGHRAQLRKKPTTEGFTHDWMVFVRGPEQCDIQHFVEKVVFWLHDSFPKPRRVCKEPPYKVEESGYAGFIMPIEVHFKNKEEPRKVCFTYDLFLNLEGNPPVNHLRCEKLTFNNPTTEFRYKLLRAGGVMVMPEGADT
The experiment in a line: TR-FRET ENL Screening Assay, FRET Assay Protocol 1. Conditions: H3K9cr peptide (aa1-20). The procedure:
Compounds of the invention were dissolved in DMSO at a concentration of 3 mM with subsequent dilutions in assay buffer (50 mM HEPES PH7.0, 150 mM NaCl, 0.05% BSA, 0.2% Pluronic F-127) such that the assay contained 1% DMSO. […] Low control (LC) wells received 5 uL of assay buffer instead of ENL protein. […] Compound concentration response curves were performed in duplicate over the concentration range of 0.15 nM-30 uM. The response at each compound concentration minus the LC value was converted to percent inhibition of the vehicle control group response (HC-LC). The relationship between the % inhibition and the compound concentration was analyzed using a four parameter logistic equation to estimate lower and upper asymptotes, the compound concentration producing 50% inhibition (IC50 value) and the slope at the mid-point location.
In turn, `COCCn1cc(-c2ccc(C(=O)Nc3cc4[nH]c(CN5CCC[C@@H]5C)cc4cn3)c(F)c2)cn1` [Example 72] displayed a half-maximal inhibitory concentration (IC50) of 364 nM. Molecule `C[C@H]1CCCN1Cc1cc2cnc(NC(=O)c3cc4cnccc4cn3)cc2[nH]1` [Example 78] showed a half-maximal inhibitory concentration (IC50) of 145 nM. Molecule `Cc1nn(C2COC2)c2ccc(C(=O)Nc3cc4[nH]c(CN5CCC[C@@H]5C)cc4cn3)cc12` [Example 100] came in with an IC50 of 214 nM. In turn, `C[C@H]1CCCN1Cc1cc2cnc(NC(=O)c3ncc(-c4cn[nH]c4)cc3F)cc2[nH]1` [Example 74] registered a half-maximal inhibitory concentration (IC50) of 1090 nM. `C[C@H]1CCCN1Cc1cc2cnc(NC(=O)c3ccc4cc[nH]c(=O)c4c3)cc2[nH]1` [Example 25] yielded an IC50 of 395 nM.

In the case of `COCC1CCN(Cc2cc3cnc(NC(=O)c4ccc5c(cnn5C)c4)cc3[nH]2)C1` (centres unmarked) [Example 9], the half-maximal inhibitory concentration (IC50) was determined as 283 nM. Next, `C[C@H]1CCCN1Cc1cc2cnc(NC(=O)c3ccc4c(c3)CNC(=O)C4)cc2[nH]1` [Example 26]: 435 nM; `C[C@H]1CCCN1Cc1cc2cnc(NC(=O)c3ccc(-n4ccnc4)cn3)cc2[nH]1` [Example 75]: 2340 nM; `C[C@H]1CCCN1Cc1cc2cnc(NC(=O)c3ccc4[nH]nnc4c3)cc2[nH]1` [Example 79]: 511 nM.

`C[C@H]1CCCN1Cc1cc2cnc(NC(=O)c3ccc4ncccc4c3)cc2[nH]1` [Example 15]: the IC50 came to 263 nM. `C[C@H]1CCCN1Cc1cc2cnc(NC(=O)c3ccc4c(cnn4-c4ccncc4)c3)cc2[nH]1` [Example 37, N-(2-[[(2S)-2-methylpyrrolidin-1-yl]methyl]-1H-pyrrolo[3,2-c]pyridin-6-yl)-1-(pyridin-4-yl) indazole-5-carboxamide] gave a half-inhibitory concentration (IC50) of 239 nM. In the case of `COCCn1cc(-c2ccc(C(=O)Nc3cc4[nH]c(CN5CCC[C@@H]5C)cc4cn3)nc2)cn1` [Example 71], the IC50 came to 1040 nM. On to `C[C@H]1CCCN1Cc1cc2cnc(NC(=O)c3nc4cc(N)ccc4[nH]3)cc2[nH]1` [Example 64], for which the IC50 turned out to be 1350 nM. As for `Cc1nc2cc(C(=O)Nc3cc4[nH]c(CN5CCC[C@@H]5C)cc4cn3)ccc2o1` [Example 3, 2-methyl-N-(2-[[(2S)-2-methylpyrrolidin-1-yl]methyl]-1H-pyrrolo[3,2-c]pyridin-6-yl)-1,3-benzoxazole-5-carboxamide], the IC50 was 884 nM. Turning to `C[C@H]1CCCN1Cc1cc2cnc(NC(=O)c3ccc4c(c3)n(C)c(=O)n4C)cc2[nH]1` [Example 90], the IC50 came out at 126 nM. `C[C@H]1CCCN1Cc1cc2cnc(NC(=O)c3ccc4c(N)nn(C5CC5)c4c3)cc2[nH]1` [Example 84] showed an IC50 of 177 nM. Regarding `Cc1noc2ccc(C(=O)Nc3cc4[nH]c(CN5CCC[C@@H]5C)cc4cn3)cc12` [Example 2, 3-methyl-N-(2-[[(2S)-2-methylpyrrolidin-1-yl]methyl]-1H-pyrrolo[3,2-c]pyridin-6-yl)-1,2-benzoxazole-5-carboxamide], the IC50 came out at 465 nM. The value for `C[C@H]1CCCN1Cc1cc2cnc(NC(=O)c3ccc(-c4cn(C)nn4)cc3F)cc2[nH]1` [Example 33] was 418 nM. Take `C[C@H]1CCCN1Cc1cc2cnc(NC(=O)c3ccc4cnccc4c3)cc2[nH]1` [Example 65]: the concentration for half-maximal inhibition (IC50) came out at 137 nM. Regarding `CC(=O)Nc1nn(C)c2cc(C(=O)Nc3cc4[nH]c(CN5CCC[C@@H]5C)cc4cn3)ccc12` [Example 87, 3-acetamido-1-methyl-N-(2-[[(2S)-2-methylpyrrolidin-1-yl]methyl]-1H-pyrrolo[3,2-c]pyridin-6-yl)indazole-6-carboxamide], the IC50 came out at 330 nM. Next, `C[C@H]1CCCN1Cc1cc2cnc(NC(=O)c3ccc4nc(N)ncc4c3)cc2[nH]1` [Example 59]: 513 nM; `C[C@H]1CCCN1Cc1cc2cnc(NC(=O)c3ccc4c(N)n[nH]c4c3)cc2[nH]1` [Example 83]: 168 nM; `C[C@H]1CCCN1Cc1cc2cnc(NC(=O)c3nc4ccc(O)cc4[nH]3)cc2[nH]1` [Example 63]: 1960 nM.

Regarding `C[C@H]1CCCN1Cc1cc2cnc(NC(=O)c3ccc(C(=N)N)cc3)cc2[nH]1` [Example 80], the half-inhibitory concentration (IC50) was 1900 nM. `C[C@@H]1CCN1Cc1cc2cnc(NC(=O)c3ccc4c(cnn4C)c3)cc2[nH]1` [Example 45, 1-methyl-N-(2-[[(2R)-2-methylazetidin-1-yl]methyl]-1H-pyrrolo[3,2-c]pyridin-6-yl)indazole-5-carboxamide] returned an IC50 of 2180 nM. `Cc1n[nH]c2ccc(C(=O)Nc3cc4[nH]c(CN5CC6(C5)CC(F)(F)C6)cc4cn3)cc12` [Example 109]: the IC50 stood at 152 nM.

`C[C@H]1CCCN1Cc1cc2cnc(NC(=O)c3ccc4c(=O)[nH]ccc4c3)cc2[nH]1` [Example 61] had an IC50 of 325 nM.

Turning to `C[C@H]1CCCN1Cc1cc2cnc(NC(=O)c3ccc(-c4cnn(CCO)c4)cc3)cc2[nH]1` [Example 20, 4-[1-(2-hydroxyethyl)pyrazol-4-yl]-N-(2-[[(2S)-2-methylpyrrolidin-1-yl]methyl]-1H-pyrrolo[3,2-c]pyridin-6-yl)benzamide], the concentration for half-maximal inhibition (IC50) was found to be 166 nM. `C[C@H]1CCCN1Cc1cc2cnc(NC(=O)c3ccc(-n4ccnc4)cc3)cc2[nH]1` [Example 54] yielded a half-maximal inhibitory concentration (IC50) of 212 nM. The value for `C[C@H]1CCCN1Cc1cc2cnc(NC(=O)c3ccc(-c4cn[nH]c4)cn3)cc2[nH]1` [Example 77] was 963 nM; that for `Cc1nc2ccc(C(=O)Nc3cc4[nH]c(CN5CCC[C@@H]5C)cc4cn3)cc2o1` [Example 4] was 569 nM. The value for `C[C@H]1CCCN1Cc1cc2cnc(NC(=O)c3ccc4c(c3)CCCN4C)cc2[nH]1` [Example 40, 1-methyl-N-(2-[[(2S)-2-methylpyrrolidin-1-yl]methyl]-1H-pyrrolo[3,2-c]pyridin-6-yl)-3,4-dihydro-2H-quinoline-6-carboxamide] was 2520 nM. Take `Cc1c2ccc(C(=O)Nc3cc4[nH]c(CN5CCC[C@@H]5C)cc4cn3)cc2nn1C` [Example 8]: the half-maximal inhibitory concentration (IC50) turned out to be 245 nM.

On to `Cc1ccc(-c2ccc(C(=O)Nc3cc4[nH]c(CN5CCC[C@@H]5C)cc4cn3)c(F)c2)nn1` [Example 35], for which the IC50 worked out at 657 nM. The value for `COCCCCn1ncc2cc(C(=O)Nc3cc4[nH]c(CN5CCC[C@@H]5C)cc4cn3)ccc21` [compound 28] was 416 nM. `Cc1n[nH]c2ccc(C(=O)Nc3cnc4cc(CN5CCC[C@@H]5C)[nH]c4c3)c(F)c12` [compound 106] showed a 50% inhibitory concentration (IC50) of 170 nM. The value for `C[C@H]1CCCN1Cc1cc2cnc(NC(=O)c3ccc(-c4ccnn4C)cc3F)cc2[nH]1` [Example 31] was 864 nM. Molecule `C[C@H]1CCCN1Cc1cc2nnc(NC(=O)c3ccc4c(cnn4C)c3)cc2[nH]1` [compound 19] registered a half-inhibitory concentration (IC50) of 200 nM. Consider `C[C@H]1CCCN1Cc1cc2cnc(NC(=O)c3ccc4nc(N)ccc4c3)cc2[nH]1` [Example 58], for which the IC50 came out at 295 nM. In turn, `COCC#CCn1ncc2cc(C(=O)Nc3cc4[nH]c(CN5CCC[C@@H]5C)cc4cn3)ccc21` [Example 27, 1-(4-methoxybut-2-yn-1-yl)-N-(2-[[(2S)-2-methylpyrrolidin-1-yl]methyl]-1H-pyrrolo[3,2-c]pyridin-6-yl)indazole-5-carboxamide] came in with an IC50 of 258 nM. The value for `C[C@H]1CCCN1Cc1cc2cnc(NC(=O)c3ccc4c(c3)OCC(=O)N4C)cc2[nH]1` [Example 17, 4-methyl-N-(2-[[(2S)-2-methylpyrrolidin-1-yl]methyl]-1H-pyrrolo[3,2-c]pyridin-6-yl)-3-oxo-2H-1,4-benzoxazine-7-carboxamide] was 441 nM; that for `Cc1nn(C(F)F)c2ccc(C(=O)Nc3cc4[nH]c(CN5CCC[C@@H]5C)cc4cn3)cc12` [Example 102] was 276 nM. For the molecule `CC(c1ccc(C(=O)Nc2cc3[nH]c(CN4CCC[C@@H]4C)cc3cn2)cc1)c1ccccn1` (stereo partly drawn) [Example 10, N-(2-[[(2S)-2-methylpyrrolidin-1-yl]methyl]-1H-pyrrolo[3,2-c]pyridin-6-yl)-4-[1-(pyridin-2-yl)ethyl]benzamide], the IC50 was determined as 1780 nM. `CC(c1ccncc1)c1ccc(C(=O)Nc2cc3[nH]c(CN4CCC[C@@H]4C)cc3cn2)cc1` (stereo partly drawn) [Example 29, N-(2-[[(2S)-2-methylpyrrolidin-1-yl]methyl]-1H-pyrrolo[3,2-c]pyridin-6-yl)-4-[1-(pyridin-4-yl)ethyl]benzamide]: the IC50 amounted to 527 nM. As to `C[C@H]1CCCN1Cc1cc2ncc(NC(=O)c3ccc(-c4cc[nH]n4)cc3F)cc2[nH]1` [Example 41], the IC50 was 410 nM.

With `C[C@H]1CCCN1Cc1cc2cnc(NC(=O)c3ccc4nnccc4c3)cc2[nH]1` [Example 39], the IC50 was found to be 368 nM. Molecule `C[C@H]1CCCN1Cc1cc2cnc(NC(=O)c3ccc4c(c3)OCC(=O)N4)cc2[nH]1` [Example 16, N-(2-[[(2S)-2-methylpyrrolidin-1-yl]methyl]-1H-pyrrolo[3,2-c]pyridin-6-yl)-3-oxo-2,4-dihydro-1,4-benzoxazine-7-carboxamide] had an IC50 of 1160 nM. As to `Cc1cnnc(-c2ccc(C(=O)Nc3cc4[nH]c(CN5CCC[C@@H]5C)cc4cn3)c(F)c2)c1` [Example 36], the half-maximal inhibitory concentration (IC50) is 669 nM. The molecule `CC(c1ccc(C(=O)Nc2cc3[nH]c(CN4CCC[C@@H]4C)cc3cn2)cc1)c1cccnc1` (some centres unmarked) [compound 30] had an IC50 of 763 nM. The value for `C[C@H]1CCCN1Cc1cc2cnc(NC(=O)c3ccc(-c4c[nH]cn4)cn3)cc2[nH]1` [Example 76] was 1590 nM.
